# Entries after “also recorded” stand apart in the source; their conditions may differ. Read-outs that look alike come from different tables or passages of the source.
# Legend:
# [1] = biological target: CK1ε (Homo sapiens, UniProt P49674); assay: initial IC50 determination in in vitro kinase assays, prior to standardization; type: biochemical; settings: marked * not published, read-out: IC50 values CK1ε
# Description: (§1) The SMIs used in this study (summarized in Supplementary Table S2) were selected based on their inhibitory capacity toward CK1δ in vitro, whereby a broad range of inhibitors with varying efficiency were included. The determination of IC50-values was conducted prior to the standardization workflow establishment. Zebrafish embryos treated with 20 µM of the respective compound were phenotypically analyzed.
# (§2) Supplementary Table 6: List of the inhibitors that were selected for the in vivo screening of zebrafish embryonic development. The compounds were selected based on their ability to inhibit CK1δ in in vitro kinase assays. The initial IC50-values were determined prior to the establishment of the standardized in vitro kinase assay protocol. The Supplementary Table summarizes, whether the zebrafish embryos presented an abnormal phenotype upon inhibitor treatment. The inhibitors were added to the zebrafish medium in a concentration of 20 µM.
# [2] = biological target: T1, His-DrCK1δA (Danio rerio, UniProt Q7T2E3); assay: in vitro kinase assay, α-casein phosphorylation with [γ-32P]-ATP, standard conditions; type: biochemical, zebrafish (Danio rerio); settings: for mean residual kinase activity ± SD: 20 µM inhibitor, normalized to DMSO control
# T1 construct: made in house; host or cells: E. coli Rosetta 2 (DE3)
# T1 sequence (Q7T2E3 1-403): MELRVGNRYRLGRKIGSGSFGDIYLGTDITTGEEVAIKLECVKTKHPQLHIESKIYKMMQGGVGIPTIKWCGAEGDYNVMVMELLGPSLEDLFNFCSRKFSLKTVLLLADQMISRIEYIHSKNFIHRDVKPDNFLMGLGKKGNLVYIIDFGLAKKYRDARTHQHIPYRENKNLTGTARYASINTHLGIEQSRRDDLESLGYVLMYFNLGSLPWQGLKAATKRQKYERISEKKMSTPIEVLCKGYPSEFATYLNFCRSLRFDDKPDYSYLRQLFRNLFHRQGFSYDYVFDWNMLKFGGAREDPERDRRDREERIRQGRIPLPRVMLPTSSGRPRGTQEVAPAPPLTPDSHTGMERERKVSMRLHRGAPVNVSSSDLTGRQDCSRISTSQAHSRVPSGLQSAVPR
# Description: (§3) Each in vitro kinase reaction was performed in a total volume of 15 µL containing 25 mM Tris-HCl (pH 7.0), 10 mM MgCl2, 100 µM EDTA, 2.8 µM of the substrate α-casein and 0.4 pmol [γ-^32P]-ATP at 30°C. […] Reactions were stopped by adding 3 µL of 5x SDS loading buffer and incubating at 95°C for 5 min. Proteins were separated by SDS-PAGE and stained with Coomassie Brilliant Blue R250 (Waldeck GmbH & Co. KG, Muenster, Germany). Autoradiography visualized the incorporation of radioactively labelled γ-phosphate into the proteins. A quantitative analysis of the radioactive signal was performed by excising the proteins from dried gels and measuring phosphate incorporation via Cherenkov counting (Beckmann Scintillation Counter). For the determination of the initial velocity region, a linear regression was performed. Thereby, the number of included data-points was decreased stepwise, and the point of time with the highest maximum coefficient of determination (R ^2) was chosen as the kinase-specific standard reaction time. For determination of the maximal velocity (Vmax) and Michaelis constant (Km) of ATP, various ATP concentrations in a range from 0.5 to 250 µM were tested. Raw data was used for the calculation of enzyme velocity (V) in [pmol/min]. Then, V was plotted over substrate (ATP) concentration and fitted to the Michaelis-Menten model via GraphPad Prism 8 (GraphPad Software, La Jolla, CA, United States). According to the Michaelis-Menten curve, Km, which is the concentration of the substrate, that is needed to obtain half Vmax, was calculated. For determination of IC50 values, the scintillation data measured in cpm was transformed to pmol of transferred phosphate. The data was then transformed logarithmically (X = log(X)), normalized to DMSO (100%) and zero (0%) before fitting to sigmoidal dose-response curves with variable slope with nonlinear regression using GraphPad Prism 7.
# (§4) In compliance with the established standard conditions the kinase assays were performed in the presence of 20 µM of the respective inhibitor (Figure 7).
# (§5) Next, in vitro kinase assays were performed in absence and presence of the respective SMI at different concentrations (ranging from 13 to 26667 nM). The kinase activity of the inhibitor-treated samples was normalized to the DMSO-control and plotted against the inhibitor concentration (Figure 10).
# [3] = biological target: T2, His-DrCK1δB (Danio rerio, UniProt Q6P3K7); assay: as above; type: biochemical, zebrafish (Danio rerio); settings: for mean residual kinase activity ± SD: 20 µM inhibitor, normalized to DMSO control
# T2 construct: made in house; host or cells: E. coli Rosetta 2 (DE3)
# T2 sequence (Q6P3K7 1-409): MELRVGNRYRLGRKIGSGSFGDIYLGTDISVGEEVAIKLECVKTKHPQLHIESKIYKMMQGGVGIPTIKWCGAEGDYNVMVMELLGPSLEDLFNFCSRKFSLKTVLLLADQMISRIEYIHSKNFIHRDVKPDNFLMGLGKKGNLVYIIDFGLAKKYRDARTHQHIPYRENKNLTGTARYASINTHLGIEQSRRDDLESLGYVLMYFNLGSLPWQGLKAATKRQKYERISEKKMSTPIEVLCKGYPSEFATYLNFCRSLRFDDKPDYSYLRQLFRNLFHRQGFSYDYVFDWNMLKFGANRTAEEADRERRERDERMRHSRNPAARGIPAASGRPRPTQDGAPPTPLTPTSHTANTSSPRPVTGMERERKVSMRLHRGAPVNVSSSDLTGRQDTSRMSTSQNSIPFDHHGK
# Description: as §3, §4, §5
# [4] = biological target: T3, GST-CK1ε (Homo sapiens, UniProt P49674); assay: as above; type: biochemical; settings: 20 µM inhibitor, normalized to DMSO control
# T3 construct: made in house; host or cells: E. coli Rosetta 2 (DE3)
# Description: as §3, §4
# [5] = test system: His-DrCK1ε; assay: as above; type: biochemical, zebrafish (Danio rerio); settings: 20 µM inhibitor, normalized to DMSO control
# Description: as §3, §4
# [6] = test system: zebrafish embryos; settings: for phenotype of treated zebrafish embryos: 24 to 72 hpf (48 h); for dose dependence of phenotype: 5, 10, 20 and 40 µM
# [7] = biological target: T4, GST-humCK1δ^TV1 (Homo sapiens, UniProt P48730); assay: in vitro kinase assay, α-casein phosphorylation with [γ-32P]-ATP, standard conditions; type: biochemical; settings: for mean residual kinase activity ± SD: 20 µM inhibitor, normalized to DMSO control
# T4 construct: made in house; host or cells: E. coli Rosetta 2 (DE3)
# Description: as §3, §4, §5
# [8] = test system: CK1δ; settings: prior to standardization, cited from earlier work
# [9] = biological target: CK1δ (TV1) (Homo sapiens, UniProt P48730); assay: initial IC50 determination in in vitro kinase assays, prior to standardization; type: biochemical; settings: not published
# Description: as §1, §2
# [10] = test system: csnk1db (CK1δB); assay: morpholino knockdown in zebrafish embryos, phenotype; type: in vivo, zebrafish (D. rerio); settings: 300 µM injected, 72 hpf
# Source text: The TüAB wildtype strain was used for all experiments. […] DMSO served as solvent control. […] Embryos were immobilized in 2.5% methylcellulose.
# [11] = inhibitor 13 to 26667 nM, ATP at Km, normalized to DMSO
# [12] = resulting from IC50 (Cheng-Prusoff, ATP at Km)
# CK1δ (TV1), sequence (P48730 whole entry): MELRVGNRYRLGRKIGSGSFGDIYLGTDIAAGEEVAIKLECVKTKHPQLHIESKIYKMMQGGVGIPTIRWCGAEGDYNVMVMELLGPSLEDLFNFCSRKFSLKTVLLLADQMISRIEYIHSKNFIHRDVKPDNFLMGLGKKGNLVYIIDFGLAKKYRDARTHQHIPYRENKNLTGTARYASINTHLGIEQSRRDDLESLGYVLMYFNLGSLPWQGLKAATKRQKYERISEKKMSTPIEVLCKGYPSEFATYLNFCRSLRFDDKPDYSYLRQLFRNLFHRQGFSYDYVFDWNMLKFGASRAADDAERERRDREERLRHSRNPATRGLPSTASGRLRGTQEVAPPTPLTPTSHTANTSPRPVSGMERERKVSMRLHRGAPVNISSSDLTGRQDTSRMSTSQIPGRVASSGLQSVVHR
# T4 sequence (P48730 whole entry): as above
# T3 sequence (P49674 whole entry): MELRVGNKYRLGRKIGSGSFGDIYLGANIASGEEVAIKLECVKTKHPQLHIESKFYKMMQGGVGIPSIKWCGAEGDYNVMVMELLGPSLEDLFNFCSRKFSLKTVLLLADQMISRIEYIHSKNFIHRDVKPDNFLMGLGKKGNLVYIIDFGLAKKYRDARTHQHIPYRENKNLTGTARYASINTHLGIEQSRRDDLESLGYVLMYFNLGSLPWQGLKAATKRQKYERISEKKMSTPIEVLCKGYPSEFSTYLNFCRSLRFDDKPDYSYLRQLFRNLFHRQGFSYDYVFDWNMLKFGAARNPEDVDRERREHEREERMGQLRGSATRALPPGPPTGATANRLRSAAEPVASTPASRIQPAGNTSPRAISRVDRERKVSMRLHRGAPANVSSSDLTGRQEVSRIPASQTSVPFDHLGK
# CK1ε, sequence (P49674 whole entry): as above
mean residual kinase activity ± SD [2],mean residual kinase activity ± SD [3],mean residual kinase activity ± SD [4],mean residual kinase activity ± SD [5],"Phenotypic changes (with severity) after treatment of zebrafish embryos with 20 µM inhibitor ([6]; 20 µM in medium, from 24 hpf)",mean residual kinase activity ± SD [7],IC50 [9],Compound,phenotype of treated zebrafish embryos ([6]; 5 µM),phenotype of treated zebrafish embryos ([6]; 10 µM),phenotype of treated zebrafish embryos ([6]; 20 µM),phenotype of treated zebrafish embryos ([6]; 40 µM),also measured
–,–,–,–,–,–,–,O=C(CSc1nc2c(c(=O)n1Cc1ccc(C(F)(F)F)cc1)SCC2)Nc1nc2ccc(C(F)(F)F)cc2s1 [G1-3],–,–,–,–,"Phenotypic changes ([6]; zebrafish, in vivo): None observed; Phenotypic changes (with severity) after treatment of zebrafish embryos with 20 µM inhibitor ([6]; zebrafish, in vivo): No; IC50 ([8]; ref García-Reyes et al., 2018): 0.33 µM"
–,–,–,–,–,–,–,O=C(CSc1nc2c(c(=O)n1-c1ccccc1)SCC2)Nc1nc2ccc(C(F)(F)F)cc2s1 [G1-1],–,–,–,–,"Phenotypic changes ([6]; zebrafish, in vivo): Mild bradycardia; Phenotypic changes (with severity) after treatment of zebrafish embryos with 20 µM inhibitor ([6]; zebrafish, in vivo): Yes (mild); IC50 ([8]; ref García-Reyes et al., 2018): 0.66 µM"
11.9 ± 3.2%,10.0 ± 1.3%,18.0 ± 4.8%,25.5 ± 10.7%,Yes (severe),9.1 ± 1.6%,1.4 µM,"COc1cccc(-n2c(SCC(=O)Nc3nc4ccc(C(F)(F)F)cc4s3)nccc2=O)c1 [G2-6, 2-((3-(3-Methoxyphenyl)-4-oxo-3,4-dihydropyrimidin-2-yl)thio)-N-(6-(trifluormethyl)benzo[d]thiazol-2-yl)acetamid]","cardiac phenotype, with bradycardia and blood congestion, resulting in cardiac edema",blood congestion and pericardial edema,"strong cardiac phenotype, with blood congestion, a strong bradycardia and partially total loss of heart beat; also recorded: severe effects on the embryonic development, with strong bradycardia and blood congestion; also recorded: blood congestions; also recorded: pericardial edema","bradycardia, a loss of ventricular beating and as a result pericardial edema",dose dependence of phenotype ([6]; 48 h of incubation): increasingly severe cardiac malfunctions with increasing compound concentrations
–,–,–,–,–,–,–,"csnk1db morpholino: morpholino-modified antisense oligonucleotide targeting the translational start site of csnk1db, 5′-CTGTTTCCAACTCGTAGCTCCATTG-3′ (all phosphorodiamidate morpholino (PMO))",–,–,–,–,phenotype of morpholino injected embryos [10]: reduced heart function resulting in blood congestion; phenotype of morpholino injected embryos ([10]; listed as csnk1db): cardiac malfunction; also recorded: slightly curved body axis; phenotype of morpholino injected embryos ([10]; listed as csnk1db Morpholino): reduced heart function
–,–,–,–,No,–,0.84 µM,"COc1ccc(-n2c(SCC(=O)Nc3nc4ccc(C(F)(F)F)cc4s3)nccc2=O)cc1 [G2-5, 2-((3-(4-Methoxyphenyl)-4-oxo-3,4-dihydropyrimidin-2-yl)thio)-N-(6-(trifluormethyl)benzo[d]thiazol-2-yl)acetamid]",–,–,no effect on zebrafish development or heart function; also recorded: did not show a phenotypic effect,–,–
7.6 ± 1.2%,6.3 ± 0.8%,8.6 ± 1.6%,11.3 ± 3.3%,Yes (severe),3.2 ± 0.3%,0.97 µM,"COc1ccccc1-n1c(SCC(=O)Nc2nc3ccc(C(F)(F)F)cc3s2)nccc1=O [G2-4, 2-((3-(2-Methoxyphenyl)-4-oxo-3,4-dihydropyrimidin-2-yl)thio)-N-(6-(trifluormethyl)benzo[d]thiazol-2-yl)acetamid]",mild phenotype with a minor blood congestion,weakly beating ventricle and a pericardial edema,"strong cardiac phenotype, with blood congestion, a strong bradycardia and partially total loss of heart beat; also recorded: severe effects on the embryonic development, with strong bradycardia and blood congestion; also recorded: pericardial edema; also recorded: almost not beating","bradycardia, a loss of ventricular beating and as a result pericardial edema",dose dependence of phenotype ([6]; 48 h of incubation): increasingly severe cardiac malfunctions with increasing compound concentrations

Compound,mean residual kinase activity ± SD [2],mean residual kinase activity ± SD [3],mean residual kinase activity ± SD [4],mean residual kinase activity ± SD [5],"Phenotypic changes (with severity) after treatment of zebrafish embryos with 20 µM inhibitor ([6]; 20 µM in medium, from 24 hpf)",mean residual kinase activity ± SD [7],IC50 [9],phenotype of treated zebrafish embryos ([6]; 5 µM),phenotype of treated zebrafish embryos ([6]; 10 µM),phenotype of treated zebrafish embryos ([6]; 20 µM),phenotype of treated zebrafish embryos ([6]; 40 µM),also measured
O=C(CSc1nccc(=O)n1Cc1ccc(C(F)(F)F)cc1)Nc1nc2ccc(C(F)(F)F)cc2s1 [G2-2],12.1 ± 3.9%,16.1 ± 9.5%,11.9 ± 2.0%,10.5 ± 3.0%,Yes (severe),8.4 ± 1.1%,–,"cardiac phenotype, with bradycardia and blood congestion",did not pump blood; also recorded: reduced heart function; also recorded: blood congestion and pericardial edema,"strong cardiac phenotype, with blood congestion, a strong bradycardia and partially total loss of heart beat; also recorded: severe effects on the embryonic development, with strong bradycardia and blood congestion; also recorded: blood congestions; also recorded: pericardial edema","dead and highly toxic, and all treated embryos were dead after 48 h of treatment","IC50 [1]: 0.926 µM; IC50 [2, 11]: 0.345 µM; Ki [2, 12]: 0.173 µM; IC50 [3, 11]: 0.27 µM; Ki [3, 12]: 0.135 µM; concentration that induced necrosis ([6]; 48 h of incubation, doses 5, 10, 20 and 40 µM): 40 µM; lethality to embryos ([6]; at concentrations of 20 and 40 μM): lethal; IC50 [7, 11]: 0.503 µM; Ki [7, 12]: 0.251 µM; IC50 ([8]; ref Liu et al., 2019): 0.12 µM"

# Source: paper PMC10518421, “Zebrafish as model system for the biological characterization of CK1 inhibitors” (Frontiers in Pharmacology, 2023)
